Where “and” joins values, the source holds several entries; their conditions need not be identical. Equal values may be shown once.
Columns and labels:
ANT = molecular target: T1, ANT (Rattus norvegicus, UniProt Q09073); assay: Binding of GSAO-B to ANT (streptavidin pull-down, Western blot); details: 100 μM GSAO-B, 1 h; competed by 4-fold molar excess of dimercaptopropanol
T1 construct: Mitochondria were isolated from the livers of ˜250 g male Wistar rats; from tissue; host or cells: rat liver mitochondria (male Wistar rats)
T1 sequence (Q09073 2-298 limits assumed): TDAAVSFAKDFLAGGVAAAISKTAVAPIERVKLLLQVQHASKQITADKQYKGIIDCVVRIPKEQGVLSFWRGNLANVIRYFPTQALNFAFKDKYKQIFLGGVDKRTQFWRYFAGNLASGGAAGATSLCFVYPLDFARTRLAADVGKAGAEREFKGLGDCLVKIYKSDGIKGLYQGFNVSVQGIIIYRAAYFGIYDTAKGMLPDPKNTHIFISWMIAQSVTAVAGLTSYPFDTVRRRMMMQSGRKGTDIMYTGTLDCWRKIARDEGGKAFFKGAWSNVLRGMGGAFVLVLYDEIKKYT
Experimental: Rat liver mitochondria were suspended at 1 mg of protein per mL at 25° C. in 3 mM HEPES-KOH, pH 7.0 buffer containing 213 mM mannitol, 71 mM sucrose and 10 mM sodium succinate and incubated with 100 μM GSAO-B in absence or presence of 400 μM 2,3-dimercaptopropanol (Fluka, Buchs, SG, Switzerland) at room temperature on a rotating wheel for 1 h. The labelled mitochondria were washed three times with PBS and sonicated in 0.3 mL of ice-cold 25 mM Tris, pH 7.4 buffer containing 140 mM NaCl, 2.7 mM KCl, 0.5% Triton X-100, 0.05% Tween-20, 10 μM leupeptin, 10 μM aprotinin, 50 μg·mL^−1 […] and 5 mM EDTA. Lysate was clarified by centrifugation at 18000 g for 10 min at 4° C. and incubated with 30 μL of streptavidin-dynabeads (Dynal, Oslo, Norway) for 60 min at 4° C. on a rotating wheel to isolate the biotin-labelled proteins. The beads were washed 5 times with sonication buffer and the biotin-labelled proteins were released from the beads by boiling in 30 μl of SDS-Laemmli buffer for 2 minutes. Samples were resolved on 8-16% gradient iGels under reducing conditions and transferred to PVDF membrane. Proteins were detected by Western blot using a 1:500 dilution of goat anti-human ANT polyclonal antibody (Santa Cruz Biotechnology, Santa Cruz, Calif.) and 1:2000 dilution of rabbit anti-goat peroxidase-conjugated antibodies (Dako, Carpinteria, Calif.).

BAE cells [1] = tested on: BAE cells
[2] = molecular target: T2, mitochondrial permeability transition pore (Rattus norvegicus, UniProt Q09073); format: biochemical; details: for a given concentration
T2 construct: Mitochondria were isolated from the livers of ˜250 g male Wistar rats; from tissue; host or cells: rat liver mitochondria (male Wistar rats)
T2 sequence (Q09073 2-298 limits assumed): T1 sequence (Q09073 2-298 limits assumed)

MPTP = molecular target: T3, MPTP (Rattus norvegicus, UniProt Q09073); format: biochemical
T3 construct: Mitochondria were isolated from the livers of ˜250 g male Wistar rats; from tissue; host or cells: rat liver mitochondria (male Wistar rats)
T3 sequence (Q09073 2-298 limits assumed): T1 sequence (Q09073 2-298 limits assumed)

[3] = Titration of arsenoxide compounds with DTT; format: physicochemical; details: GSAO versus Compound 1
[4] = Side-effects in Balb-C nude mice bearing BxPC-3 tumours; format: in vivo
Experimental: Female 7 to 9 week old Balb C nude were used (UNSW Biological Resource Centre). Mice were held in groups of 3 to 5 at a 12 h day and night cycle and were given animal chow and water ad libidum. A suspension of 2.5×10^6 BxPC-3 cells in 0.2 mL of PBS was injected subcutaneously in the proximal midline. Tumours were allowed to establish and grow to a size of ˜40 mm^3 after which they were randomised into four groups. Tumour volume was calculated using the relationship, a·b^2·0.52, where a is the longest and b the shortest diameter. Animals were treated with either GSAO or o-GSAO at a dose 1 or 10 mg/kg/day in 0.1 mL of PBS. The compounds were administered subcutaneously at a site distant from the tumour. Tumour volume and animal weight was measured every 2 or 3 days.
Balb-C nude mice bearing ˜40 mm^3 BxPC-3 tumours were randomised into four groups (n=10 or 11 per group) and treated subcutaneously with either GSAO (part A) or o-GSAO (part B) at 1 or 10 mg/kg/day in 0.1 mL of PBS. Parts C and D are the mice weights for the respective groups, where the arrow indicates start of treatment. The data points are the mean±SE of the tumour volumes or mice weights. Treatment with 10 mg/kg o-GSAO (part B) was stopped at day 14 due to necrosis and inflammation at sites of injection in 7 out of 11 mice (3/11 with severe ulcers, 4/11 with medium ulcers).

[5] = Toxicity of o-GSAO in Balb-C mice; format: in vivo
Experimental: FIG. 22. Toxicity of o-GSAO. Balb-C mice (6-8 week old, 3 per group) were treated subcutaneously with 1 or 10 mg/kg/day of o-GSAO in 0.1 mL of PBS. The data points are the mean±SE of the mice weights.

BAE cells [6] = assay: Cell proliferation and viability assay (MTT); format: cell-based, bovine
Experimental: (§1) BAE or human pancreatic carcinoma BxPC-3 cells were seeded at a density of 10^3 cells per well into 96 well plates in DMEM containing 10% foetal bovine serum and allowed to adhere for 24 h. Cells were washed and incubated with DMEM containing 10% foetal bovine serum and GSAO or o-GSAO and cultured for a further 48 h. Some BAE cells were arrested for 24 h in medium containing 0.25% serum and cultured for a further 48 h in medium containing 0.25% or 10% serum, in the presence of GSAO or o-GSAO. Viable attached cells were determined using MTT.

BAE cells [7] = assay: cells; details: Bos taurus, read-out: IC50 (μM)*
[8] = tested on: human pancreatic carcinoma BxPC-3 cells; assay: Cell proliferation and viability assay (MTT); format: cell-based; details: Homo sapiens, BXPC-3; 10% serum, 48 h; read-out: IC50 for proliferation arrest of BxPC-3 cells
Experimental: as §1

[9] = 10 mg/kg/day o-GSAO s.c., day 14

O=[As]c1ccc(NC(=O)CSC[C@H](NC(=O)CC[C@H](NC(=O)CCCCCNC(=O)CCCCCNC(=O)CCCC[C@@H]2SC[C@@H]3NC(=O)N[C@@H]32)C(=O)O)C(=O)NCC(=O)O)cc1 (stereo partly shown) [GSAO-B, 4-(N—(S—(N-(6-((6-((biotinoyl)amino)hexanoyl)amino)hexanoyl)-glutathionyl)acetyl)amino) phenylarsenoxide]
labelling of ANT with GSAO-B (ANT): Direct interaction

NC(CCC(=O)NC(CSCC(=O)Nc1ccccc1[As](O)O)C(=O)NCC(=O)O)C(=O)O (stereo not drawn) [Compound 1, NH2-Glu-Cys-(CH2CONH—C6H4-o-As{OH}2)-Gly-OH]
Fold Increase (BAE cells [1]): 53.2 | half-time for maximal swelling, times faster compared to GSAO [2]: 3-5 times | MPTP Swelling Rate Increase/GSAO* Mean (MPTP): 16.3 | arsenical reactivity (titration with DTT) [3]: no significant difference | weight loss ([4]; 10 mg/kg/day o-GSAO s.c.): some weight loss | mice with medium ulcers [4, 9]: 4/11 | mice with severe ulcers [4, 9]: 3/11 | mice with necrosis and inflammation at sites of injection ([4]; 10 mg/kg/day o-GSAO s.c., treatment stopped at day 14): 7 out of 11 and 7 of 11 | behavioural side-effects in Balb C nude mice ([4]; 1 or 10 mg/kg/day s.c.): not observed | Side-effects of o-GSAO administration ([5]; 1 mg/kg/day s.c., day 1): nil | Side-effects of o-GSAO administration ([5]; 1 mg/kg/day s.c., day 2): ruffled fur; mild hyperactivity^b | Side-effects of o-GSAO administration ([5]; 1 mg/kg/day s.c., day 3): ruffled fur; mild hyperactivity^b | Side-effects of o-GSAO administration ([5]; 1 mg/kg/day s.c., day 4): ruffled fur; mild hyperactivity^b | Side-effects of o-GSAO administration ([5]; 1 mg/kg/day s.c., day 5): ruffled fur; hyperactivity; clonic | Side-effects of o-GSAO administration ([5]; 1 mg/kg/day s.c., day 6): ruffled fur; hyperactivity; clonic | Side-effects of o-GSAO administration ([5]; 1 mg/kg/day s.c., day 7): ruffled fur; hyperactivity; clonic | Side-effects of o-GSAO administration ([5]; 1 mg/kg/day s.c., day 8): ruffled fur; hyperactivity^b | Side-effects of o-GSAO administration ([5]; 1 mg/kg/day s.c., day 9): ruffled fur; mild hyperactivity^b | Side-effects of o-GSAO administration ([5]; 1 mg/kg/day s.c., day 10): ruffled fur; mild hyperactivity^b | Side-effects of o-GSAO administration ([5]; 1 mg/kg/day s.c., day 11): ruffled fur; mild hyperactivity^b | Side-effects of o-GSAO administration ([5]; 1 mg/kg/day s.c., day 13): nil | Side-effects of o-GSAO administration ([5]; 1 mg/kg/day s.c., day 14): nil | Side-effects of o-GSAO administration ([5]; 10 mg/kg/day s.c., day 1): ruffled fur; hyperactivity; mild | Side-effects of o-GSAO administration ([5]; 10 mg/kg/day s.c., day 2): ruffled fur; mild hyperactivity^b | Side-effects of o-GSAO administration ([5]; 10 mg/kg/day s.c., day 3): ruffled fur; mild hyperactivity^b | Side-effects of o-GSAO administration ([5]; 10 mg/kg/day s.c., day 4): ruffled fur; mild hyperactivity^b | Side-effects of o-GSAO administration ([5]; 10 mg/kg/day s.c., day 5): ruffled fur; hyperactivity; clonic | Side-effects of o-GSAO administration ([5]; 10 mg/kg/day s.c., day 6): ruffled fur; hyperactivity; clonic | Side-effects of o-GSAO administration ([5]; 10 mg/kg/day s.c., day 7): ruffled fur; hyperactivity; clonic | Side-effects of o-GSAO administration ([5]; 10 mg/kg/day s.c., day 8): ruffled fur; hyperactivity^b | Side-effects of o-GSAO administration ([5]; 10 mg/kg/day s.c., day 9): ruffled fur; mild hyperactivity^b | Side-effects of o-GSAO administration ([5]; 10 mg/kg/day s.c., day 10): ruffled fur; mild hyperactivity^b | Side-effects of o-GSAO administration ([5]; 10 mg/kg/day s.c., day 11): ruffled fur; mild hyperactivity^b | Side-effects of o-GSAO administration ([5]; 10 mg/kg/day s.c., day 13): skin necrosis at the injection site | Side-effects of o-GSAO administration ([5]; 10 mg/kg/day s.c., day 14): skin necrosis at the injection site | weight loss ([5]; 1 or 10 mg/kg/day s.c., Balb C mice): no weight loss observed | skin effects with repeated injections in the same area ([5]; Balb C mice): thickening of the skin and occasional necrosis | times more effective than GSAO at inhibiting proliferation of BAE cells (BAE cells [6]): ~50 times | selectivity for proliferating versus growth-quiescent endothelial cells (BAE cells [6]; 0.25% or 10% serum, 48 h): not selective for proliferating (angiogenic) endothelial cells | IC50 (BAE cells [6]; Bos taurus, 10% serum, 48 h, read-out: IC50 for proliferation arrest of BAE cells): 160 ± 30 nM | IC50 (BAE cells [7]): 0.16 µM | IC50 [8]: ~2000 nM

— patent US9353152B2, “Induction of the mitochondrial permeability transition” (NewSouth Innovations Pty Limited, priority 2002, dated 2016)
